ChEMBL document CHEMBL5661943, “ASAP - In vitro antiviral effect” (2024)
pEC50: −log10 of the molar value. Where “and” joins values, the source holds several entries; their conditions need not be identical. Equal values may be shown once.

Experiments:
Zika virus [1] = assay: Functional CPE-based assay to measure dose dependent changes in antiviral-drug inhibitory efficacy against Zika virus MR766 in Vero E6 miRFP670 cells (cotreated with P-gp inhibitor, CP100356). Cells are treated with antiviral candidates that are serially diluted. EC50 is reported via analysis of MTS assay as a readout of CPE. The assay has been performed by KU Leuven.; type: organism-based, Chlorocebus sabaeus, Vero C1008; conditions: Zika virus, Vero C1008; for EC90: Baseline response 0 %, Maximum response 100 %, P-gp concentration 500 nM, P-gp inhibitor CP100356
dengue virus type 2 [2] = assay: Functional assay to measure dose dependent changes in antiviral-drug inhibitory efficacy against Dengue virus type 2 New Guinea C in Vero E6 miRFP670 cells (cotreated with P-gp inhibitor, CP100356). Cells are treated with antiviral candidates that are serially diluted, following infection, cells are fixed. EC50 is reported via analysis of fluorescence intensity using high-content imager. The …; type: organism-based, Chlorocebus sabaeus, Vero C1008; conditions: for EC90: P-gp concentration 500 nM, P-gp inhibitor CP100356
Zika virus [3] = assay: EC50 is reported via analysis of immunofluorescence staining. The assay has been performed by Icahn School of Medicine at Mount Sinai.; type: functional, organism-based, Chlorocebus sabaeus, VeroE6/TMPRSS2; conditions: for EC90: P-gp concentration 2 uM, P-gp inhibitor Elacidar
dengue virus type 2 [4] = assay: Functional immunofluorescence assay to measure dose dependent changes in antiviral-drug inhibitory efficacy against Dengue virus type 2 Thailand/16681/84 in Vero E6/TMPRSS2 cells (cotreated with P-gp inhibitor, Elacridar). Cells are treated with antiviral candidates that are serially diluted, following infection, cells are fixed. EC50 is reported via analysis of immunofluorescence staining. The assay has been performed by Icahn School of Medicine at Mount Sinai.; type: organism-based, Chlorocebus sabaeus, VeroE6/TMPRSS2; conditions: Dengue virus; for EC90: P-gp concentration 2 uM, P-gp inhibitor Elacidar

For `Cn1cc2cc(Cl)cc(C(=O)Nc3ccc4c(c3)CNC4)c2n1`, the pEC50 (Zika virus [1]) was 6.29, the EC90 (Zika virus [1]; Hill slope 4.196, Maximum measured 85.26 %, Minimum measured 23.993 %, R squared 0.942) was > 0.781 µM and the pEC50 (dengue virus type 2 [2]; Dengue virus, Vero C1008) was 6.15. For the same compound, the EC90 (dengue virus type 2 [2]; Dengue virus, Vero C1008, Baseline response 0 %, Hill slope 0.764, Maximum measured 122.857 %, Maximum response 100 %, Minimum measured 34.33 %, R squared 0.405) was < 0.391 µM, the pEC50 (Zika virus [3]; Zika virus, VeroE6/TMPRSS2) was 6.19 and the EC90 (Zika virus [3]; Zika virus, VeroE6/TMPRSS2, Baseline response 0 %, Hill slope -0.814, Maximum measured 136.159 %, Maximum response 100 %, Minimum measured 33.863 %, R squared 0.555) was > 5.56 µM. For the same compound, the pEC50 (dengue virus type 2 [4]; VeroE6/TMPRSS2) was < 5.26 and the EC90 (dengue virus type 2 [4]; VeroE6/TMPRSS2, Maximum measured 98.349 %, Minimum measured 47.733 %) was > 5.56 µM.
In the case of `N[C@H]1Cc2ccc(NC(=O)c3cc(Cl)cc4[nH]ncc34)cc2C1`, the pEC50 (Zika virus [1]) was < 4.30, the EC90 (Zika virus [1]; Hill slope 8.874, Maximum measured 2.747 %, Minimum measured -3.726 %, R squared 0.015) was > 50 µM and the pEC50 (dengue virus type 2 [2]; Dengue virus, Vero C1008) was < 4.30. The EC90 (dengue virus type 2 [2]; Dengue virus, Vero C1008, Baseline response 0 %, Hill slope -0.493, Maximum measured 107.038 %, Maximum response 100 %, Minimum measured 74.642 %, R squared 0.117) was > 50 µM, the pEC50 (Zika virus [3]; Zika virus, VeroE6/TMPRSS2) was 5.19 and the EC90 (Zika virus [3]; Zika virus, VeroE6/TMPRSS2, Baseline response 0 %, Hill slope -0.367, Maximum measured 76.386 %, Maximum response 70 %, Minimum measured 22.981 %, R squared 0.54) was > 50 µM. For the same compound, the pEC50 (dengue virus type 2 [4]; VeroE6/TMPRSS2) was < 4.30 and the EC90 (dengue virus type 2 [4]; VeroE6/TMPRSS2, Baseline response 0 %, Hill slope -1.504, Maximum measured 137.122 %, Maximum response 100 %, Minimum measured 76.636 %, R squared 0.034) was > 50 µM.
For `Cn1cc(CCc2nc3c(C(=O)Nc4ccc5c(c4)CNC5)cc(Cl)cc3[nH]2)cn1`, the pEC50 (Zika virus [1]) was < 4.30, the EC90 (Zika virus [1]; Hill slope 0.081, Maximum measured 22.254 %, Minimum measured 2.34 %, R squared 0.041) was > 50 µM and the pEC50 (dengue virus type 2 [2]; Dengue virus, Vero C1008) was < 4.30. For the same compound, the EC90 (dengue virus type 2 [2]; Dengue virus, Vero C1008, Maximum measured 132.966 %, Minimum measured 89.816 %) was > 50 µM, the pEC50 (Zika virus [3]; Zika virus, VeroE6/TMPRSS2) was < 4.78 and the EC90 (Zika virus [3]; Zika virus, VeroE6/TMPRSS2, Maximum measured 69.995 %, Minimum measured 22.891 %) was > 16.7 µM. For the same compound, the pEC50 (dengue virus type 2 [4]; VeroE6/TMPRSS2) was < 4.78 and the EC90 (dengue virus type 2 [4]; VeroE6/TMPRSS2, Baseline response 0 %, Hill slope -0.053, Maximum measured 79.122 %, Maximum response 100 %, Minimum measured 42.376 %, R squared 0.043) was > 16.7 µM.
For `O=C1Cc2c(cc(Br)cc2C(=O)Nc2ccc3c(c2)CNC3)N1`, the pEC50 (Zika virus [1]) was 5.12, the EC90 (Zika virus [1]; EC90 CI (lower) 4.323 uM, EC90 CI (upper) 45.141 uM, Hill slope 3.545, Maximum measured 169.819 %, Minimum measured -0.685 %, R squared 0.785) was 14 µM and the pEC50 (dengue virus type 2 [2]; Dengue virus, Vero C1008) was < 4.30. The EC90 (dengue virus type 2 [2]; Dengue virus, Vero C1008, Maximum measured 133.969 %, Minimum measured 97.1 %) was > 50 µM, the EC90 (Zika virus [3]; Baseline response 0 %, EC90 CI (lower) 0.005 uM, EC90 CI (upper) 0.605 uM, Hill slope -0.732, Maximum measured 85.329 %, Maximum response 60 %, Minimum measured 3.582 %, R squared 0.614) was 21.3 µM and the EC90 (Zika virus [3]; Baseline response 0 %, Hill slope -0.686, Maximum measured 100.363 %, Maximum response 100 %, Minimum measured 5.777 %, R squared 0.778) was > 50 µM. The pEC50 (Zika virus [3]; Zika virus, VeroE6/TMPRSS2) was 5.68, the pEC50 (Zika virus [3]; veroe6/tmprss2) was 5.98 and the pEC50 (dengue virus type 2 [4]; VeroE6/TMPRSS2) was < 4.30. The EC90 (dengue virus type 2 [4]; VeroE6/TMPRSS2, Maximum measured […], Minimum measured 159.027 %) was > 50 µM.
In the case of `O=C(Nc1cc(Cl)cc(C(=O)Nc2ccc(-n3nn[nH]c3=O)cc2)c1)OCc1ccccc1`, the pEC50 (Zika virus [1]) was < 4.30, the EC90 (Zika virus [1]; Hill slope 1.628, Maximum measured 15.335 %, Minimum measured -0.05 %, R squared 0.878) was > 50 µM and the EC90 (dengue virus type 2 [2]; Baseline response 0 %, EC90 CI (lower) 3.172 uM, EC90 CI (upper) 10.269 uM, Hill slope -8.96, Maximum measured 107.351 %, Maximum response 100 %, Minimum measured 0.837 %, R squared 0.832) was 9.32 µM. For the same compound, the EC90 (dengue virus type 2 [2]; Baseline response 0 %, Hill slope -35.644, Maximum measured 130.696 %, Maximum response 100 %, Minimum measured 29.339 %, R squared 0.657) was > 50 µM, the pEC50 (dengue virus type 2 [2]; vero c1008) was 5.14 and 4.31 and the pEC50 (Zika virus [3]; Zika virus, VeroE6/TMPRSS2) was 4.31. The EC90 (Zika virus [3]; Zika virus, VeroE6/TMPRSS2, Baseline response 0 %, Hill slope -16.502, Maximum measured 156.276 %, Maximum response 100 %, Minimum measured 42.402 %, R squared 0.326) was > 50 µM, the pEC50 (dengue virus type 2 [4]; VeroE6/TMPRSS2) was 4.94 and the EC90 (dengue virus type 2 [4]; VeroE6/TMPRSS2, Baseline response 0 %, Hill slope -0.45, Maximum measured 123.141 %, Maximum response 100 %, Minimum measured 41.064 %, R squared 0.456) was > 16.7 µM.
